In PubChem BioAssay (NCI):
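Interpolation was linear, between the two tested concentrations surrounding the appropriate level; five concentrations were tested over 48 hours in 96-well plates. GI50 marks 50% less growth. TGI marks complete inhibition of growth.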

Columns and labels:
Assay in all cases: NCI tumour cell line growth inhibition, 48 h
[1] = system: 786-0 renal
[2] = system: A498 renal
[3] = system: A549 NSCLC
[4] = system: ACHN renal
[5] = system: BT-549 breast
[6] = system: CAKI-1 renal
[7] = system: CCRF-CEM leukemia
[8] = system: COLO 205 colon
[9] = system: DU-145 prostate
[10] = system: EKVX NSCLC
[11] = system: HCC-2998 colon
[12] = system: HCT-116 colon
[13] = system: HCT-15 colon
[14] = system: HL-60(TB) leukemia
[15] = system: HOP-62 NSCLC
[16] = system: HOP-92 NSCLC
[17] = system: HS 578T breast
[18] = system: HT29 colon
[19] = system: IGROV1 ovarian
[20] = system: K-562 leukemia
[21] = system: KM12 colon
[22] = system: LOX IMVI melanoma
[23] = system: M14 melanoma
[24] = system: MALME-3M melanoma
[25] = system: MCF7 breast
[26] = system: MDA-MB-231 breast
[27] = system: MDA-MB-435
[28] = system: MOLT-4 leukemia
[29] = system: NCI-H226 lung
[30] = system: NCI-H23 lung
[31] = system: NCI-H460 lung
[32] = system: NCI-H522 lung
[33] = system: NCI/ADR-RES ovarian
[34] = system: OVCAR-4 ovarian
[35] = system: OVCAR-5 ovarian
[36] = system: OVCAR-8 ovarian
[37] = system: PC-3 prostate
[38] = system: RPMI-8226 leukemia
[39] = system: RXF 393 renal
[40] = system: SF-268 CNS
[41] = system: SF-295 CNS
[42] = system: SF-539 CNS
[43] = system: SK-MEL-2 melanoma
[44] = system: SK-MEL-28 melanoma
[45] = system: SK-MEL-5 melanoma
[46] = system: SK-OV-3 ovarian
[47] = system: SN12C renal
[48] = system: SNB-19 CNS
[49] = system: SNB-75 CNS
[50] = system: SR leukemia
[51] = system: SW-620 colon
[52] = system: T-47D breast
[53] = system: TK-10 renal
[54] = system: U251 CNS
[55] = system: UACC-257 melanoma
[56] = system: UACC-62 melanoma
[57] = system: UO-31 renal

`Cn1ccnc1C(=O)/C=C/c1ccc(CNC(=O)c2ccc(S(F)(F)(F)(F)F)cc2)cc1` was tested, and the GI50 [1] was 4.09 µM, the TGI [1] was 8.27 µM and the GI50 [2] was 3.41 µM. For the same molecule, the TGI [2] was 6.84 µM, the GI50 [3] was 5.92 µM and the TGI [3] was > 25 µM. It also gave a GI50 [4] of 4.23 µM, a TGI [4] of 7.74 µM and a GI50 [5] of 3.49 µM. It also gave a TGI [5] of 7.63 µM, a GI50 [6] of 3.26 µM and a TGI [6] of 6.9 µM. For the same molecule, the GI50 [7] was 3.25 µM, the TGI [7] was > 25 µM and the GI50 [8] was 4.22 µM. It also gave a TGI [8] of 9.07 µM, a GI50 [9] of 3.26 µM and a TGI [9] of 6.6 µM. The GI50 [10] was 4.38 µM, the TGI [10] was 10.3 µM and the GI50 [11] was 3.7 µM. It also gave a TGI [11] of 7.17 µM, a GI50 [12] of 3.17 µM and a TGI [12] of 7.36 µM. It also gave a GI50 [13] of 1.36 µM, a TGI [13] of 6.49 µM and a GI50 [14] of 4.87 µM. The TGI [14] was 17.1 µM, the GI50 [15] was 4.31 µM and the TGI [15] was 9.55 µM. The GI50 [16] was 4.38 µM, the TGI [16] was 12.1 µM and the GI50 [17] was 5.45 µM. It also gave a TGI [17] of 21.4 µM, a GI50 [18] of 3.9 µM and a TGI [18] of 8.68 µM. It also gave a GI50 [19] of 3.76 µM, a TGI [19] of 10.6 µM and a GI50 [20] of 1.05 µM. The TGI [20] was > 25 µM, the GI50 [21] was 2.8 µM and the TGI [21] was 6.02 µM. It also gave a GI50 [22] of 1.12 µM, a TGI [22] of 4.2 µM and a GI50 [23] of 4.58 µM. For the same molecule, the TGI [23] was 9.4 µM, the GI50 [24] was 4.85 µM and the TGI [24] was 12 µM. The GI50 [25] was 0.868 µM, the TGI [25] was 4.79 µM and the GI50 [26] was 5.57 µM. It also gave a TGI [26] of 18.9 µM, a GI50 [27] of 5.76 µM and a TGI [27] of 16.1 µM. It also gave a GI50 [28] of 5.53 µM, a TGI [28] of 22.5 µM and a GI50 [29] of 5.84 µM. The TGI [29] was > 25 µM, the GI50 [30] was 3.02 µM and the TGI [30] was 7.69 µM. For the same molecule, the GI50 [31] was 3.34 µM, the TGI [31] was 9.53 µM and the GI50 [32] was 4.11 µM. For the same molecule, the TGI [32] was 8.23 µM, the GI50 [33] was 5.71 µM and the TGI [33] was > 25 µM. It also gave a GI50 [34] of 3.64 µM, a TGI [34] of 11.3 µM and a GI50 [35] of 4.48 µM. For the same molecule, the TGI [35] was 11.6 µM, the GI50 [36] was 6.54 µM and the TGI [36] was > 25 µM. For the same molecule, the GI50 [37] was 3.64 µM, the TGI [37] was 10.3 µM and the GI50 [38] was 1.3 µM. It also gave a TGI [38] of 8.28 µM, a GI50 [39] of 3.53 µM and a TGI [39] of 7.41 µM. The GI50 [40] was 3.44 µM, the TGI [40] was 7.52 µM and the GI50 [41] was 3.6 µM. It also gave a TGI [41] of 7.15 µM, a GI50 [42] of 3.37 µM and a TGI [42] of 7.04 µM. The GI50 [43] was 4.24 µM, the TGI [43] was 9.22 µM and the GI50 [44] was 5.2 µM. The TGI [44] was 11.4 µM, the GI50 [45] was 4.57 µM and the TGI [45] was 8.52 µM. The GI50 [46] was 7.7 µM, the TGI [46] was > 25 µM and the GI50 [47] was 5.74 µM. It also gave a TGI [47] of 18.6 µM, a GI50 [48] of 3.21 µM and a TGI [48] of 7.07 µM. It also gave a GI50 [49] of 2.12 µM, a TGI [49] of 5.41 µM and a GI50 [50] of 0.854 µM. The TGI [50] was > 25 µM, the GI50 [51] was 1.66 µM and the TGI [51] was 5.85 µM. It also gave a GI50 [52] of 4.32 µM, a TGI [52] of 18.6 µM and a GI50 [53] of 4.38 µM. It also gave a TGI [53] of 9.15 µM, a GI50 [54] of 1.45 µM and a TGI [54] of 5.33 µM. It also gave a GI50 [55] of 5.73 µM, a TGI [55] of 15.2 µM and a GI50 [56] of 3.98 µM. The TGI [56] was 9.1 µM, the GI50 [57] was 3.36 µM and the TGI [57] was 6.59 µM.
